Assay results taken from US11274131B2, “IgM-mediated receptor clustering and cell modulation” (MAYO FOUNDATION FOR MEDICAL EDUCATION AND RESEARCH, priority 2007, dated 2022).

Test system: matured human monocyte-derived DC
Assay: Antigen uptake assay, matured human DC
Type: cell-based
Settings: inhibitor pretreatment before B7-DC XAb
Procedure: FIGS. 2A to 2G are a series of pictures showing that a kinase activated pathway regulates antibody-induced antigen uptake by matured DC. Matured human monocyte-derived DC were treated with the MTAb B7-DC XAb for varying time periods and evaluated for the phosphorylation status of select signaling pathway intermediates by immunoprecipitation with DAP12 (MC457), Syk (4D10), and PLCγ1 (MC490) reactive antibodies followed by western blot analysis using the phosphotyrosine reactive antibody 4G10 as a probe (FIGS. 2A-2C). Samples of the cells blocked with indicated concentration of piceatannol (FIG. 2D) or with […] of piceatannol (FIG. 2E) were analyzed for phosphorylation of Syk (FIG. 2D) and PLCγ1 (FIG. 2E). To investigate the functional importance of these signaling intermediates in the regulation of antigen uptake by matured DC activated with B7-DC XAb, varying concentrations of pharmacologic inhibitors were used to block the activity of p72Syk (piceatannol) and PLCγ1 (U73122) (FIGS. 2F and 2G, respectively). Antigen uptake was assessed by pulsing cultures with FITC-conjugated ovalbumin and measuring intracellular fluorescence 16 hours later in CD11c positive cells by flow cytometry.
Human DC were generated from peripheral blood CD14^+ monocytes by incubation in GM-CSF and IL-4 for five days. […] All cultures were pulsed with OVA-FITC at the time of treatment with IgM antibodies, and […] OVA-FITC was assessed 24 hours later by flow cytometry.
FIGS. 4A and 4B are a series of plots showing the effects of kinase inhibitors on OVA-FITC uptake by matured human DC, as determined by flow cytometry. […] All cells were pulsed with OVA-FITC at the time of treatment with IgM antibody, and CD11c+ cells were analyzed for OVA-FITC uptake 24 hours later by flow cytometry. […]
Antigen uptake experiments were carried out as described previously (Radhakrishnan et al. (2005) Proc. Natl. Acad. Sci. U.S.A. 102:11438-11443). […] The matured cells were incubated with ovalbumin labeled with FITC or APC and control antibody or B7-DC XAb for two hours, washed and analyzed by FACSCALIBUR™ (Becton Dickinson). […]

CC(C)(C)n1nc(-c2ccc(Cl)cc2)c2c(N)ncnc21 [PP2]
inhibition of B7-DC XAb-induced antigen uptake by matured DC: inhibition of antigen uptake

COc1ccc2c(c1)CC[C@@H]1[C@@H]2CC[C@]2(C)[C@@H](NCCCCCCN3C(=O)C=CC3=O)CC[C@@H]12 [U73122]
inhibition of B7-DC XAb-induced antigen uptake by matured DC: inhibited uptake of tagged proteins by matured DC in a dose responsive manner
